Assay results published in patent publication US5684039A, “Chroman-2-ylmethylamino derivatives” (American Home Products Corporation, priority 1996, dated 1997).

Tests used:
α1 = α1 (no method described); assay type: binding
dopamine D2 receptor [1] = target: T1, dopamine D2 receptor (Rattus norvegicus, UniProt P61169); experiment: Ratio Ant/Ag (intrinsic activity from low-affinity/high-affinity agonist state); assay type: binding; settings: Spiper. IC50 / Quin. IC50
Source text: Efforts to induce antipsychotic activity with dopamine autoreceptor agonists have been successful (Corsini et al. Adv. Biochem. […] […] et at. […] A method for determining intrinsic activity at the dopamine D2 receptor was recently reported [Lahti et al., Mol. Pharm. […] Intrinsic activity is predicted using the ratio of the "low-affinity agonist" (LowAg) state of the receptor and the "high-affinity agonist" ([…]) state of the receptor, […]. These ratios correlate with the agonist, partial agonist, and antagonist activities of a given compound, which activities characterize a compounds ability to elicit an antipsychotic effect.

dopamine D2 receptor [2] = target: T1, dopamine D2 receptor; experiment: 3H-spiroperidol (Spiper.) binding, affinity for the dopamine D-2 receptor, homogenized limbic brain tissue; parameters: homogenized limbic brain tissue; from tissue; host or cells: limbic brain tissue, homogenized
dopamine autoreceptor = target: T2, dopamine autoreceptor (Rattus norvegicus, UniProt P61169); experiment: 3H-quinpirole (Quin.) binding, affinity for the dopamine autoreceptor, homogenized rat striatal brain tissue
T2 construct: homogenized rat striatal brain tissue; from tissue; host or cells: rat striatal brain tissue, homogenized
T2 sequence (P61169 whole entry): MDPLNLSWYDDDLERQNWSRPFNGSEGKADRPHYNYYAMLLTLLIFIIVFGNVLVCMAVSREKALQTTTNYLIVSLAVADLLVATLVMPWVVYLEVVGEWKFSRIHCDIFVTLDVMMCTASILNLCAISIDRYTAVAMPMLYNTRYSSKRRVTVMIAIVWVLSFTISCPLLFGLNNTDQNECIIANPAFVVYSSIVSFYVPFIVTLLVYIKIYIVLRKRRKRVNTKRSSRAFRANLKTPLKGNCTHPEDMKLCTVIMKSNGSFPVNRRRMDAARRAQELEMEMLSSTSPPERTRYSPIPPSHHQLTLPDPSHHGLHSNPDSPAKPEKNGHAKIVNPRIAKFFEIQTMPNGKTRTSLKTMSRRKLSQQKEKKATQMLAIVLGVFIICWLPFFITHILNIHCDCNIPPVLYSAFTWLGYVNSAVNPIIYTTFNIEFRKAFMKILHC

T1 sequence (P61169 whole entry): as above

Row | Compound | Ratio Ant/Ag (dopamine D2 receptor [1]) | IC50 (dopamine D2 receptor [2]) [nM] | IC50 (dopamine autoreceptor) [nM] | IC50 (α1) [nM]
1 | CCCNCC1CCc2ccc(O)cc2O1 (centres unmarked) | – | – | – | 1160
2 | CCCCNCC1CCc2ccc(OC)cc2O1 (centres unmarked) | 32 | 23600 | 733 | –
3 | CCCCCCNCC1CCc2ccc(O)cc2O1 (centres unmarked) | – | – | – | 221

Second part, led by results:

Row | Ratio Ant/Ag (dopamine D2 receptor [1]) | IC50 (dopamine D2 receptor [2]) [nM] | IC50 (dopamine autoreceptor) [nM] | Compound | IC50 (α1) [nM]
4 | 88 | 8960 | 102 | CCCN(CCC)CC1CCc2ccc(O)cc2O1 (centres unmarked) | –
5 | 32 | 26500 | 831 | COc1ccc2c(c1)OC(CNCCC(C)C)CC2 (centres unmarked) | –
